Data from the supplement of paper PMC10307832.

Tests used:
Test in all cases: relative viability (nuclei count vs DMSO), 5 days (fraction); higher = more cells survive
[1] = compound: CCN1C(=O)C2=CC(=C(N=C2N(C1=O)C3CC3)N)C(=O)N + CC(=O)Nc1cccc(-n2c(=O)n(C3CC3)c(=O)c3c(Nc4ccc(I)cc4F)n(C)c(=O)c(C)c32)c1 [Trametinib] (partner 0.02 µM)
How it was run: (§1)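 Nuclei were stained with Hoechst during a one-step fixation (final 0.05% Triton X-100, 1% formaldehyde, 1 ug/ml Hoechst) carried out 5 days after dosing, then counted on 4× images. The cells, lung cancer lines in 1536-well plates, had been dosed by pin tool the day after seeding with one drug alone or a fixed anchor-drug dose plus five library-drug doses (not always all listed) in √10 steps. Relative viability is the nuclei count in treated wells divided by that in vehicle wells, and each value is the median of duplicate plates.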

[2] = compound: CCN1C(=O)C2=CC(=C(N=C2N(C1=O)C3CC3)N)C(=O)N + CS(=O)(=O)N1CCN(Cc2cc3nc(-c4cccc5[nH]ncc45)nc(N4CCOCC4)c3s2)CC1 [Pictilisib] (partner 1 µM)
How it was run: as §1

[3] = compound: CCN1C(=O)C2=CC(=C(N=C2N(C1=O)C3CC3)N)C(=O)N + C[C@@H](Oc1cc(-c2cnn(C3CCNCC3)c2)cnc1N)c1c(Cl)ccc(F)c1Cl [Crizotinib] (partner 1 µM)
How it was run: as §1

[4] = compound: CCN1C(=O)C2=CC(=C(N=C2N(C1=O)C3CC3)N)C(=O)N + NC(=O)Nc1cc(-c2cccc(F)c2)sc1C(=O)N[C@H]1CCCNC1 [AZD7762] (partner 0.2 µM)
How it was run: as §1

[5] = compound: CCN1C(=O)C2=CC(=C(N=C2N(C1=O)C3CC3)N)C(=O)N + O=C(c1cc(Cc2n[nH]c(=O)c3ccccc23)ccc1F)N1CCN(C(=O)C2CC2)CC1 [Olaparib] (partner 8 µM)
How it was run: as §1

H3255
relative viability ([1]; first compound 0.253 µM): 0.587 | relative viability ([1]; first compound 0.8 µM): 0.578 | relative viability ([1]; first compound 2.53 µM): 0.567 | relative viability ([1]; first compound 8 µM): 0.636 | relative viability ([2]; first compound 0.253 µM): 0.509 | relative viability ([2]; first compound 0.8 µM): 0.47 | relative viability ([2]; first compound 2.53 µM): 0.504 | relative viability ([2]; first compound 8 µM): 0.513 | relative viability ([3]; first compound 0.253 µM): 0.805 | relative viability ([3]; first compound 0.8 µM): 0.936 | relative viability ([3]; first compound 2.53 µM): 0.885 | relative viability ([3]; first compound 8 µM): 0.965 | relative viability ([4]; first compound 0.253 µM): 0.884 | relative viability ([4]; first compound 0.8 µM): 0.922 | relative viability ([4]; first compound 2.53 µM): 0.919 | relative viability ([4]; first compound 8 µM): 0.832 | relative viability ([5]; first compound 0.253 µM): 0.567 | relative viability ([5]; first compound 0.8 µM): 0.556 | relative viability ([5]; first compound 2.53 µM): 0.567 | relative viability ([5]; first compound 8 µM): 0.633

NCI-H441
relative viability ([1]; first compound 0.253 µM): 0.508 | relative viability ([1]; first compound 0.8 µM): 0.441 | relative viability ([1]; first compound 2.53 µM): 0.516 | relative viability ([1]; first compound 8 µM): 0.532 | relative viability ([2]; first compound 0.253 µM): 0.561 | relative viability ([2]; first compound 0.8 µM): 0.48 | relative viability ([2]; first compound 2.53 µM): 0.462 | relative viability ([2]; first compound 8 µM): 0.576 | relative viability ([3]; first compound 0.253 µM): 0.706 | relative viability ([3]; first compound 0.8 µM): 0.654 | relative viability ([3]; first compound 2.53 µM): 0.773 | relative viability ([3]; first compound 8 µM): 0.781 | relative viability ([4]; first compound 0.253 µM): 0.892 | relative viability ([4]; first compound 0.8 µM): 1.29 | relative viability ([4]; first compound 2.53 µM): 1.2 | relative viability ([4]; first compound 8 µM): 1.1 | relative viability ([5]; first compound 0.253 µM): 0.559 | relative viability ([5]; first compound 0.8 µM): 0.578 | relative viability ([5]; first compound 2.53 µM): 0.499 | relative viability ([5]; first compound 8 µM): 0.649

CAL-12T
relative viability ([1]; first compound 0.253 µM): 0.42 | relative viability ([1]; first compound 0.8 µM): 0.354 | relative viability ([1]; first compound 2.53 µM): 0.386 | relative viability ([1]; first compound 8 µM): 0.328 | relative viability ([2]; first compound 0.253 µM): 0.431 | relative viability ([2]; first compound 2.53 µM): 0.437 | relative viability ([2]; first compound 8 µM): 0.541 | relative viability ([3]; first compound 0.253 µM): 0.549 | relative viability ([3]; first compound 0.8 µM): 0.595 | relative viability ([3]; first compound 2.53 µM): 0.702 | relative viability ([3]; first compound 8 µM): 0.783 | relative viability ([4]; first compound 0.253 µM): 0.619 | relative viability ([4]; first compound 0.8 µM): 0.479 | relative viability ([4]; first compound 2.53 µM): 0.664 | relative viability ([4]; first compound 8 µM): 0.567 | relative viability ([5]; first compound 0.253 µM): 0.734 | relative viability ([5]; first compound 0.8 µM): 0.717 | relative viability ([5]; first compound 2.53 µM): 0.682 | relative viability ([5]; first compound 8 µM): 0.658

NCI-H1792
relative viability ([1]; first compound 0.253 µM): 0.457 | relative viability ([1]; first compound 0.8 µM): 0.332 | relative viability ([1]; first compound 2.53 µM): 0.346 | relative viability ([1]; first compound 8 µM): 0.39 | relative viability ([2]; first compound 0.253 µM): 0.312 | relative viability ([2]; first compound 0.8 µM): 0.28 | relative viability ([2]; first compound 2.53 µM): 0.355 | relative viability ([2]; first compound 8 µM): 0.3 | relative viability ([3]; first compound 0.253 µM): 1.1 | relative viability ([3]; first compound 0.8 µM): 0.902 | relative viability ([3]; first compound 2.53 µM): 1.08 | relative viability ([3]; first compound 8 µM): 0.878 | relative viability ([4]; first compound 0.253 µM): 0.779 | relative viability ([4]; first compound 0.8 µM): 0.624 | relative viability ([4]; first compound 2.53 µM): 0.693 | relative viability ([4]; first compound 8 µM): 0.508 | relative viability ([5]; first compound 0.253 µM): 0.44 | relative viability ([5]; first compound 0.8 µM): 0.387 | relative viability ([5]; first compound 2.53 µM): 0.292 | relative viability ([5]; first compound 8 µM): 0.667

NCI-H1437
relative viability ([1]; first compound 0.253 µM): 0.609 | relative viability ([1]; first compound 0.8 µM): 0.468 | relative viability ([1]; first compound 2.53 µM): 0.527 | relative viability ([1]; first compound 8 µM): 0.406 | relative viability ([2]; first compound 0.253 µM): 0.433 | relative viability ([2]; first compound 0.8 µM): 0.416 | relative viability ([2]; first compound 2.53 µM): 0.445 | relative viability ([2]; first compound 8 µM): 0.465 | relative viability ([3]; first compound 0.253 µM): 0.938 | relative viability ([3]; first compound 0.8 µM): 0.993 | relative viability ([3]; first compound 2.53 µM): 0.818 | relative viability ([3]; first compound 8 µM): 1.09 | relative viability ([4]; first compound 0.253 µM): 1.03 | relative viability ([4]; first compound 0.8 µM): 1.09 | relative viability ([4]; first compound 2.53 µM): 1.17 | relative viability ([4]; first compound 8 µM): 1.14 | relative viability ([5]; first compound 0.253 µM): 0.684 | relative viability ([5]; first compound 0.8 µM): 0.637 | relative viability ([5]; first compound 2.53 µM): 0.622 | relative viability ([5]; first compound 8 µM): 0.585

HOP-62
relative viability ([1]; first compound 0.253 µM): 0.312 | relative viability ([1]; first compound 0.8 µM): 0.376 | relative viability ([1]; first compound 2.53 µM): 0.333 | relative viability ([1]; first compound 8 µM): 0.416 | relative viability ([2]; first compound 0.253 µM): 1.01 | relative viability ([2]; first compound 0.8 µM): 0.883 | relative viability ([2]; first compound 2.53 µM): 0.413 | relative viability ([2]; first compound 8 µM): 0.804 | relative viability ([3]; first compound 0.253 µM): 0.891 | relative viability ([3]; first compound 0.8 µM): 0.966 | relative viability ([3]; first compound 2.53 µM): 0.983 | relative viability ([3]; first compound 8 µM): 0.867 | relative viability ([4]; first compound 0.253 µM): 0.727 | relative viability ([4]; first compound 0.8 µM): 0.566 | relative viability ([4]; first compound 2.53 µM): 0.617 | relative viability ([4]; first compound 8 µM): 0.899 | relative viability ([5]; first compound 0.253 µM): 0.349 | relative viability ([5]; first compound 0.8 µM): 0.488 | relative viability ([5]; first compound 2.53 µM): 0.41 | relative viability ([5]; first compound 8 µM): 0.572

EPLC-272H
relative viability ([1]; first compound 0.253 µM): 0.261 | relative viability ([1]; first compound 0.8 µM): 0.239 | relative viability ([1]; first compound 2.53 µM): 0.327 | relative viability ([1]; first compound 8 µM): 0.298 | relative viability ([2]; first compound 0.253 µM): 0.296 | relative viability ([2]; first compound 0.8 µM): 0.288 | relative viability ([2]; first compound 2.53 µM): 0.389 | relative viability ([2]; first compound 8 µM): 0.333 | relative viability ([3]; first compound 0.253 µM): 0.997 | relative viability ([3]; first compound 0.8 µM): 0.998 | relative viability ([3]; first compound 2.53 µM): 0.906 | relative viability ([3]; first compound 8 µM): 0.988 | relative viability ([4]; first compound 0.253 µM): 0.229 | relative viability ([4]; first compound 0.8 µM): 0.206 | relative viability ([4]; first compound 2.53 µM): 0.278 | relative viability ([4]; first compound 8 µM): 0.193 | relative viability ([5]; first compound 0.8 µM): 0.752 | relative viability ([5]; first compound 2.53 µM): 0.975 | relative viability ([5]; first compound 8 µM): 1.08

HCC-366
relative viability ([1]; first compound 0.253 µM): 0.416 | relative viability ([1]; first compound 0.8 µM): 0.433 | relative viability ([1]; first compound 2.53 µM): 0.348 | relative viability ([1]; first compound 8 µM): 0.343 | relative viability ([2]; first compound 0.253 µM): 0.168 | relative viability ([2]; first compound 0.8 µM): 0.162 | relative viability ([2]; first compound 2.53 µM): 0.0835 | relative viability ([2]; first compound 8 µM): 0.11 | relative viability ([3]; first compound 0.253 µM): 0.615 | relative viability ([3]; first compound 0.8 µM): 0.6 | relative viability ([3]; first compound 2.53 µM): 0.537 | relative viability ([3]; first compound 8 µM): 0.968 | relative viability ([4]; first compound 0.253 µM): 0.395 | relative viability ([4]; first compound 0.8 µM): 0.312 | relative viability ([4]; first compound 2.53 µM): 0.41 | relative viability ([4]; first compound 8 µM): 0.231 | relative viability ([5]; first compound 0.253 µM): 0.351 | relative viability ([5]; first compound 0.8 µM): 0.361 | relative viability ([5]; first compound 2.53 µM): 0.361 | relative viability ([5]; first compound 8 µM): 0.37
